Target: PB2 (Influenza A virus, UniProt P03428)
Experiment: biochemical
Assay type: binding

Sequence of PB2 (P03428 whole entry, looked up): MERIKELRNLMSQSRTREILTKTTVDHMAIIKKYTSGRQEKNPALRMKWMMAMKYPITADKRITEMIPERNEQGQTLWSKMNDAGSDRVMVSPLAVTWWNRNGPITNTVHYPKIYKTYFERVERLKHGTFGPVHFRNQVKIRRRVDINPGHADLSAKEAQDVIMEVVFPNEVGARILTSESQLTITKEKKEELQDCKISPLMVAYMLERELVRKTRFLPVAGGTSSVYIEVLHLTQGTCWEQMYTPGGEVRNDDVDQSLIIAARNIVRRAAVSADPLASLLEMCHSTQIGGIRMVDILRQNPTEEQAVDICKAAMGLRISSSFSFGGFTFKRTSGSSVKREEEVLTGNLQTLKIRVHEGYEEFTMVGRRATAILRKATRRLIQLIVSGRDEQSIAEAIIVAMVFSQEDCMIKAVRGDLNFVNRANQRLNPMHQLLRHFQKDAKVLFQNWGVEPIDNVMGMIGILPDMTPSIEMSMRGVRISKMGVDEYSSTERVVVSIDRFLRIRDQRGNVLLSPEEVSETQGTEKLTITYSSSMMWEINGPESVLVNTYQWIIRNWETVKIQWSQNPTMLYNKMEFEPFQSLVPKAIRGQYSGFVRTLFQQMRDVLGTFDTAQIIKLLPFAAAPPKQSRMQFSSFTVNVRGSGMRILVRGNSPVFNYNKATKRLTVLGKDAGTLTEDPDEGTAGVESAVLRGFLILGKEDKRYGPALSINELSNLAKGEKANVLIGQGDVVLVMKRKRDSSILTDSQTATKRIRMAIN

| SMILES | EC50 [µM] |
| --- | --- |
| CCOc1ccc(CNC(=O)OCc2cc(C(=O)N[C@H]3CCC[C@@H](Nc4nc(-c5c[nH]c6ncc(F)cc56)ncc4F)C3)ncc2F)cc1 [Compound A147] | > 100 |
| CCNC(=O)C(NC(=O)OCc1ccnc(C(=O)N[C@H]2CCC[C@@H](Nc3nc(-c4c[nH]c5ncc(F)cc45)ncc3F)C2)c1)C(C)(C)C (stereo partly drawn) [Compound A148] | 50 to 100 |
| CCNC(=O)C(NC(=O)OCc1ccnc(C(=O)N[C@H]2CCC[C@@H](Nc3nc(-c4c[nH]c5ncc(F)cc45)ncc3F)C2)c1)C(C)(C)C (stereo partly drawn) [Compound A149] | > 100 |
| O=C(NCCOCCOCCOCCO)N[C@@H]1CCC[C@H](Nc2nc(-c3c[nH]c4ncc(F)cc34)ncc2F)C1 [Compound A166] | 5 to 25 |
| CCOCCOCCOCCNC(=O)N[C@@H]1CCC[C@H](Nc2nc(-c3c[nH]c4ncc(F)cc34)ncc2F)C1 [Compound A167] | > 100 |
| CCOCCOCCOCCNC(=O)N[C@@H]1CCC[C@H](Nc2nc(-c3c[nH]c4ncc(F)cc34)ncc2F)C1 [Compound A168] | 5 to 25 |
| CN(CCOCCOCCOCCO)C(=O)N[C@@H]1CCC[C@H](Nc2nc(-c3c[nH]c4ncc(F)cc34)ncc2F)C1 [Compound A169] | 50 to 100 |
| NCCOCCOCCOCCNC(=O)N[C@@H]1CCC[C@H](Nc2nc(-c3c[nH]c4ncc(F)cc34)ncc2F)C1 [Compound A170] | > 100 |
| CN(CCOCCOCCOCCC(=O)O)C(=O)N[C@H]1CCC[C@@H](Nc2nc(-c3c[nH]c4ncc(F)cc34)ncc2F)C1 [Compound A171] | 25 to 50 |
| O=C(O)CCOCCOCCOCCNC(=O)N[C@H]1CCC[C@@H](Nc2nc(-c3c[nH]c4ncc(F)cc34)ncc2F)C1 [Compound A172] | 5 to 25 |
| CN(CCOCCOCCOCCN)C(=O)N[C@@H]1CCC[C@H](Nc2nc(-c3c[nH]c4ncc(F)cc34)ncc2F)C1 [Compound A173] | 50 to 100 |
| CCCCCCCCCCCNC(=O)N[C@@H]1CCC[C@H](Nc2nc(-c3c[nH]c4ncc(F)cc34)ncc2F)C1 [Compound A174] | 50 to 100 |
| CCCCCCCCCCCN(C)C(=O)N[C@@H]1CCC[C@H](Nc2nc(-c3c[nH]c4ncc(F)cc34)ncc2F)C1 [Compound A175] | 50 to 100 |
| CCOCCOCCOCCN(Cc1ccccc1)C(=O)N[C@@H]1CCC[C@H](Nc2nc(-c3c[nH]c4ncc(F)cc34)ncc2F)C1 [Compound A176] | > 100 |
| CCCCCOCCOCCN(C)C(=O)N[C@@H]1CCC[C@H](Nc2nc(-c3c[nH]c4ncc(F)cc34)ncc2F)C1 [Compound A177] | > 100 |
| CCOCCOc1cccc(CCNC(=O)N[C@@H]2CCC[C@H](Nc3nc(-c4c[nH]c5ncc(F)cc45)ncc3F)C2)c1 [Compound A178] | > 100 |
| CCCCCOCCOCCN(Cc1ccccc1)C(=O)N[C@@H]1CCC[C@H](Nc2nc(-c3c[nH]c4ncc(F)cc34)ncc2F)C1 [Compound A179] | > 100 |
| CCOCCOCCCCCNC(=O)N[C@@H]1CCC[C@H](Nc2nc(-c3c[nH]c4ncc(F)cc34)ncc2F)C1 [Compound A180] | > 100 |
| CCOCCOCCCCCN(Cc1ccccc1)C(=O)N[C@@H]1CCC[C@H](Nc2nc(-c3c[nH]c4ncc(F)cc34)ncc2F)C1 [Compound A182] | 50 to 100 |
| CCCCCOCCOCCNC(=O)N[C@@H]1CCC[C@H](Nc2nc(-c3c[nH]c4ncc(F)cc34)ncc2F)C1 [Compound A183] | 50 to 100 |
| CCOCc1cccc(COCCN(C)C(=O)N[C@@H]2CCC[C@H](Nc3nc(-c4c[nH]c5ncc(F)cc45)ncc3F)C2)c1 [Compound A184] | > 100 |

| SMILES | EC50 [µM] |
| --- | --- |
| CCCCCCCCCCCN(Cc1ccccc1)C(=O)N[C@@H]1CCC[C@H](Nc2nc(-c3c[nH]c4ncc(F)cc34)ncc2F)C1 [Compound A185] | > 100 |
| CCOCCOc1cccc(CCN(C)C(=O)N[C@@H]2CCC[C@H](Nc3nc(-c4c[nH]c5ncc(F)cc45)ncc3F)C2)c1 [Compound A186] | > 100 |
| CCOCc1cccc(COCCNC(=O)N[C@@H]2CCC[C@H](Nc3nc(-c4c[nH]c5ncc(F)cc45)ncc3F)C2)c1 [Compound A187] | 50 to 100 |
| CN(CCOCCOCCOCCO)C(=O)N[C@H]1CCC[C@@H](Nc2nc(-c3c[nH]c4ncc(F)cc34)ncc2F)C1 [Compound A190] | > 100 |
| CN(CCOCCOCCOCCO)C(=O)N[C@H]1CCC[C@@H](Nc2nc(-c3c[nH]c4ncc(F)cc34)ncc2F)C1 [Compound A191] | 25 to 50 |
| CCOCCCCCOCCNC(=O)N[C@H]1CCC[C@@H](Nc2nc(-c3c[nH]c4ncc(F)cc34)ncc2F)C1 [Compound A192] | > 100 |
| CCOCCCCCOCCN(C)C(=O)N[C@H]1CCC[C@@H](Nc2nc(-c3c[nH]c4ncc(F)cc34)ncc2F)C1 [Compound A193] | > 100 |
| CCOCCOCCOCCNC(=O)N(CCCCc1ccccc1)[C@H]1CCC[C@@H](Nc2nc(-c3c[nH]c4ncc(F)cc34)ncc2F)C1 [Compound A194] | > 100 |
| CCOCCCCCOCCN(Cc1ccccc1)C(=O)N[C@H]1CCC[C@@H](Nc2nc(-c3c[nH]c4ncc(F)cc34)ncc2F)C1 [Compound A196] | > 100 |
| CCOCCOCCOCCNC(=O)N[C@H]1CCC[C@@H](Nc2nc(-c3ccnc(Cl)c3)ncc2F)C1 [Compound A197] | > 100 |
| CCCOCCCCCCCN(C)C(=O)N[C@@H]1CCC[C@H](Nc2nc(-c3c[nH]c4ncc(F)cc34)ncc2F)C1 [Compound A199] | > 100 |
| CCCCOCCCCCCN(C)C(=O)N[C@@H]1CCC[C@H](Nc2nc(-c3c[nH]c4ncc(F)cc34)ncc2F)C1 [Compound A200] | > 100 |
| CCCCCOCCCCCN(C)C(=O)N[C@@H]1CCC[C@H](Nc2nc(-c3c[nH]c4ncc(F)cc34)ncc2F)C1 [Compound A201] | > 100 |
| CCOCCOCCCCCN(CC(=O)O)C(=O)N[C@@H]1CCC[C@H](Nc2nc(-c3c[nH]c4ncc(F)cc34)ncc2F)C1 [Compound A202] | 5 to 25 |
| CCOCCOCCCCCN(CC)C(=O)N[C@H]1CCC[C@@H](Nc2nc(-c3c[nH]c4ncc(F)cc34)ncc2F)C1 [Compound A203] | > 100 |
| CCOCCOCc1cccc(CN(C)C(=O)N[C@@H]2CCC[C@H](Nc3nc(-c4c[nH]c5ncc(F)cc45)ncc3F)C2)c1 [Compound A204] | > 100 |
| CCCCCCOCCCCN(C)C(=O)N[C@H]1CCC[C@@H](Nc2nc(-c3c[nH]c4ncc(F)cc34)ncc2F)C1 [Compound A205] | > 100 |
| CCCCCCCOCCCN(C)C(=O)N[C@H]1CCC[C@@H](Nc2nc(-c3c[nH]c4ncc(F)cc34)ncc2F)C1 [Compound A206] | > 100 |
| CCOCCOCCCCCN(Cc1ccccn1)C(=O)N[C@@H]1CCC[C@H](Nc2nc(-c3c[nH]c4ncc(F)cc34)ncc2F)C1 [Compound A207] | 50 to 100 |
| CCOCCOCCCCCN(Cc1ccncc1)C(=O)N[C@H]1CCC[C@@H](Nc2nc(-c3c[nH]c4ncc(F)cc34)ncc2F)C1 [Compound A208] | > 100 |
| CCOCCOCCCCCN(Cc1cncnc1)C(=O)N[C@H]1CCC[C@@H](Nc2nc(-c3c[nH]c4ncc(F)cc34)ncc2F)C1 [Compound A209] | > 100 |

| SMILES | EC50 [µM] |
| --- | --- |
| CCOCCOCCCCCN(CC(N)=O)C(=O)N[C@@H]1CCC[C@H](Nc2nc(-c3c[nH]c4ncc(F)cc34)ncc2F)C1 [Compound A210] | 50 to 100 |
| CCOCCCCCCCCN(C)C(=O)N[C@H]1CCC[C@@H](Nc2nc(-c3c[nH]c4ncc(F)cc34)ncc2F)C1 [Compound A211] | > 100 |
| CCOCCOCCc1cccc(N(C)C(=O)N[C@H]2CCC[C@@H](Nc3nc(-c4c[nH]c5ncc(F)cc45)ncc3F)C2)c1 [Compound A212] | > 100 |
| CCOCCCc1cccc(CCN(C)C(=O)N[C@H]2CCC[C@@H](Nc3nc(-c4c[nH]c5ncc(F)cc45)ncc3F)C2)n1 [Compound A213] | > 100 |
| CCOCCOCCCCCN(C(=O)N[C@H]1CCC[C@@H](Nc2nc(-c3c[nH]c4ncc(F)cc34)ncc2F)C1)C(C)C [Compound A214] | > 100 |
| CCOCCCc1cncc(CCN(C)C(=O)N[C@H]2CCC[C@@H](Nc3nc(-c4c[nH]c5ncc(F)cc45)ncc3F)C2)c1 [Compound A215] | > 100 |
| CCOc1ccccc1OCCCCCN(C)C(=O)N[C@@H]1CCC[C@H](Nc2nc(-c3c[nH]c4ncc(F)cc34)ncc2F)C1 [Compound A216] | > 100 |
| CCOCCOCCCCCN(C)C(=O)NC1CCC(Nc2nc(-c3c[nH]c4ncc(F)cc34)ncc2F)C1 (stereo not drawn) [Compound A217] | > 100 |
| CCOCCOCCCCCN(C)C(=O)NCC(C)CNc1nc(-c2c[nH]c3ncc(F)cc23)ncc1F (stereo not drawn) [Compound A218] | > 100 |
| CCOCCOCCCCCNC(=O)N(C)[C@H]1CCC[C@@H](Nc2nc(-c3c[nH]c4ncc(F)cc34)ncc2F)C1 [Compound A219] | 25 to 50 |
| CCOCCCc1cccc(CCN(C)C(=O)N[C@H]2CCC[C@@H](Nc3nc(-c4c[nH]c5ncc(F)cc45)ncc3F)C2)c1 [Compound A220] | 50 to 100 |
| CN(CCCCCOCCOCc1ccccc1)C(=O)N[C@H]1CCC[C@@H](Nc2nc(-c3c[nH]c4ncc(F)cc34)ncc2F)C1 [Compound A221] | > 100 |
| CN(CCCCCOCCOCc1ccccn1)C(=O)N[C@@H]1CCC[C@H](Nc2nc(-c3c[nH]c4ncc(F)cc34)ncc2F)C1 [Compound A222] | 50 to 100 |
| CCOc1ccccc1OCCCCCN(C)C(=O)N[C@H]1CCC[C@@H](Nc2nc(-c3c[nH]c4ncc(F)cc34)ncc2F)C1 [Compound A225] | > 100 |
| CCOCCOCCCCCN(CC)C(=O)N[C@H]1CCC[C@@H](Nc2nc(-c3c[nH]c4ncc(F)cc34)ncc2F)C1 [Compound A227] | > 100 |
| CCOCCOCCCCCN(CC)C(=O)N[C@H]1CCC[C@@H](Nc2nc(-c3c[nH]c4ncc(F)cc34)ncc2F)C1 [Compound A228] | 50 to 100 |
| CCCOCCCCCCCN(C)C(=O)N[C@@H]1CCC[C@H](Nc2nc(-c3c[nH]c4ncc(F)cc34)ncc2F)C1 [Compound A235] | 50 to 100 |
| CCCOCCCCCCCN(C)C(=O)N[C@@H]1CCC[C@H](Nc2nc(-c3c[nH]c4ncc(F)cc34)ncc2F)C1 [Compound A236] | 50 to 100 |
| CCOCCOCCCCCN(C)C(=O)N(C)[C@H]1CCC[C@@H](Nc2nc(-c3c[nH]c4ncc(F)cc34)ncc2F)C1 [Compound A241] | > 100 |
| CCOCCOCCCCCN(C(=O)N[C@H]1CCC[C@@H](Nc2nc(-c3c[nH]c4ncc(F)cc34)ncc2F)C1)C1CC1 [Compound A242] | > 100 |
| CCCOCCOCCCCN(C)C(=O)N[C@H]1CCC[C@@H](Nc2nc(-c3c[nH]c4ncc(F)cc34)ncc2F)C1 [Compound A243] | > 100 |

— patent publication US12357631B2 (priority 2018, dated 2025)
